The results in this text go back to US8119681B2, “2-[1-phenyl-5-hydroxy or methoxy-4alpha-methyl-hexahydrocyclopenta [ƒ]indazole-5-YL]ethyl phenyl derivatives as glucocorticoid receptor ligands” (Merck Sharp & Dohme Corp., priority 2006, dated 2012).

In the first assay the target is T1, human GR (Homo sapiens, UniProt P04150).
T1 sequence (P04150 1-777): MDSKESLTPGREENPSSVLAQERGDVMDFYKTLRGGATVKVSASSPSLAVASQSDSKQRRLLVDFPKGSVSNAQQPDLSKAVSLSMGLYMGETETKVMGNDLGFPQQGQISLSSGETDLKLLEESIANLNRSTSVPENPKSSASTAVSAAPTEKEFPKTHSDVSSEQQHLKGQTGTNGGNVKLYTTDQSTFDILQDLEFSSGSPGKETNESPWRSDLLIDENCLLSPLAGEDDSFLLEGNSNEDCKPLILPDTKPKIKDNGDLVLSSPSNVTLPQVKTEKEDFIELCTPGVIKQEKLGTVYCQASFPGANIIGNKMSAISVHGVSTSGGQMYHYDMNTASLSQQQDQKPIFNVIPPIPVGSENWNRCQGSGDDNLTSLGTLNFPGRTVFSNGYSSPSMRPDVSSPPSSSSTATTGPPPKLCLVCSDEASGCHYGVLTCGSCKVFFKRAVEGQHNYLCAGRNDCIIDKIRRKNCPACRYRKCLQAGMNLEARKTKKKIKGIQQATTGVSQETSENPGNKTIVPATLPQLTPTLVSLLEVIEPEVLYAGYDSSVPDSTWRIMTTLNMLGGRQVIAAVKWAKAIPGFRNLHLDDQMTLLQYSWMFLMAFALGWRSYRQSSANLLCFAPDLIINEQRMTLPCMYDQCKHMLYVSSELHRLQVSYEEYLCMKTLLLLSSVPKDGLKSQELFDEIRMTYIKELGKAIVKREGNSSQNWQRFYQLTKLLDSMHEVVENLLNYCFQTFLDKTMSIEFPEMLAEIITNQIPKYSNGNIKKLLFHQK
In words: Transrepression Assay (GITAR), TNFα-β-lactamase reporter gene in U937 cells. The assay is classed as cell-based. Set-up: U937 cells contain an endogenous glucocorticoid receptor (GR); endogenous in cells; host or cells: U937 cells stably transfected with the TNF-α promoter/β-lactamase reporter only. The conditions noted are these: U-937, read-out: maximal activity in the transrepression assay. Summed up: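 Reporter readout used CCF2-AM loading for 70–90 min at room temperature after overnight (~18 h, 37 °C) PMA (5 ng/ml final) and LPS (100 ng/ml final) stimulation of compound-treated (30–45 min) TNFα-β-lactamase U937 cells expressing native GR. Activity was normalised to 100 nM dexamethasone repression.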
For the compound `CC(C)NC(=O)Oc1ccccc1CC[C@]1(O)CCC2=Cc3c(cnn3-c3ccc(F)cc3)C[C@@]21C` [Example 136, 2-{2-[(4αS,5R)-1-(4-fluorophenyl)-5-hydroxy-4α-methyl-1,4,4α,5,6,7-hexahydrocyclopenta[f]indazol-5-yl]ethyl}phenyl isopropylcarbamate], the Emax fell in the range of 5 to 100%.

Staying with this assay, now noted: U-937; 100 nM dexamethasone = 100% activity; read-out: maximal activity in the transrepression assay.
As to `C[C@]12Cc3cnn(-c4ccc(F)cc4)c3C=C1CC[C@@]2(O)CCc1cc(F)ccc1NS(=O)(=O)CC(F)(F)F` [Example 119, 2,2,2-trifluoro-N-(4-fluoro-2-{2-[(4αS,5R)-1-(4-fluorophenyl)-5-hydroxy-4α-methyl-1,4,4α,5,6,7-hexahydrocyclopenta[f]indazol-5-yl]ethyl}phenyl)ethanesulfonamide], the Emax fell in the range of 5 to 100%.

As for `CC(C)S(=O)(=O)c1ccccc1CC[C@]1(O)CCC2=Cc3c(cnn3-c3ccc(F)cc3)C[C@@]21C` [Example 120, (4αS,5R)-1-(4-fluorophenyl)-5-{2-[2-(isopropylsulfonyl)phenyl]ethyl}-4α-methyl-1,4,4α,5,6,7-hexahydrocyclopenta[f]indazol-5-ol], the Emax was in the range of 5 to 100%.

As to `COC(=O)Nc1ccccc1CC[C@]1(O)CCC2=Cc3c(cnn3-c3ccc(F)cc3)C[C@@]21C` [Example 121, methyl (2-{2-[(4αS,5R)-1-(4-fluorophenyl)-5-hydroxy-4α-methyl-1,4,4α,5,6,7-hexahydrocyclopenta[f]indazol-5-yl]ethyl}phenyl)carbamate], the Emax fell in the range of 5 to 100%.

As for `CCOC(=O)Nc1c(F)cccc1CC[C@]1(O)CCC2=Cc3c(cnn3-c3ccc(F)cc3)C[C@@]21C` [Example 122, ethyl (2-fluoro-6-{2-[(4αS,5R)-1-(4-fluorophenyl)-5-hydroxy-4α-methyl-1,4,4α,5,6,7-hexahydrocyclopenta[f]indazol-5-yl]ethyl}phenyl)carbamate], the Emax was in the range of 5 to 100%.

With `COC(=O)Nc1c(F)cccc1CC[C@]1(O)CCC2=Cc3c(cnn3-c3ccc(F)cc3)C[C@@]21C` [Example 123, methyl (2-fluoro-6-{2-[(4αS,5R)-1-(4-fluorophenyl)-5-hydroxy-4α-methyl-1,4,4α,5,6,7-hexahydrocyclopenta[f]indazol-5-yl]ethyl}phenyl)carbamate], the Emax was 5 to 100%.

Take `COC(=O)Nc1ccc(F)cc1CC[C@]1(O)CCC2=Cc3c(cnn3-c3ccc(F)cc3)C[C@@]21C` [Example 124, methyl (4-fluoro-6-{2-[(4αS,5R)-1-(4-fluorophenyl)-5-hydroxy-4α-methyl-1,4,4α,5,6,7-hexahydrocyclopenta[f]indazol-5-yl]ethyl}phenyl)carbamate]: the Emax fell in the range of 5 to 100%.

Turning to `CCOC(=O)Nc1ccc(F)cc1CC[C@]1(O)CCC2=Cc3c(cnn3-c3ccc(F)cc3)C[C@@]21C` [Example 125, ethyl (4-fluoro-2-{2-[(4αS,5R)-1-(4-fluorophenyl)-5-hydroxy-4α-methyl-1,4,4α,5,6,7-hexahydrocyclopenta[f]indazol-5-yl]ethyl}phenyl)carbamate], the Emax is 5 to 100%.

`C[C@]12Cc3cnn(-c4ccc(F)cc4)c3C=C1CC[C@@]2(O)CCc1cccc(F)c1NC(=O)C(F)(F)F` [Example 126, 2,2,2-trifluoro-N-(2-fluoro-6-{2-[(4αS,5R)-1-(4-fluorophenyl)-5-hydroxy-4α-methyl-1,4,4α,5,6,7-hexahydrocyclopenta[f]indazol-5-yl]ethyl}phenyl)acetamide]: the Emax was 5 to 100%.

Regarding `C[C@]12Cc3cnn(-c4ccc(F)cc4)c3C=C1CC[C@@]2(O)CCc1ccccc1NC(=O)C(F)(F)F` [Example 127, 2,2,2-trifluoro-N-(2-{2-[(4αS,5R)-1-(4-fluorophenyl)-5-hydroxy-4α-methyl-1,4,4α,5,6,7-hexahydrocyclopenta[f]indazol-5-yl]ethyl}phenyl)acetamide], the Emax fell in the range of 5 to 100%.

As to `CC(=O)Nc1c(F)cccc1CC[C@]1(O)CCC2=Cc3c(cnn3-c3ccc(F)cc3)C[C@@]21C` [Example 128, N-(2-fluoro-6-{2-[(4αS,5R)-1-(4-fluorophenyl)-5-hydroxy-4α-methyl-1,4,4α,5,6,7-hexahydrocyclopenta[f]indazol-5-yl]ethyl}phenyl)acetamide], the Emax was in the range of 5 to 100%.

Consider `CC(C)NC(=O)Nc1ccccc1CC[C@]1(O)CCC2=Cc3c(cnn3-c3ccc(F)cc3)C[C@@]21C` [Example 129, N-(2-{2-[(4αS,5R)-1-(4-fluorophenyl)-5-hydroxy-4α-methyl-1,4,4α,5,6,7-hexahydrocyclopenta[f]indazol-5-yl]ethyl}phenyl)-N′-isopropylurea], for which the Emax lay within 5 to 100%.

As to `CC(C)NC(=O)Nc1c(F)cccc1CC[C@]1(O)CCC2=Cc3c(cnn3-c3ccc(F)cc3)C[C@@]21C` [Example 130, N-(2-fluoro-6-{2-[(4αS,5R)-1-(4-fluorophenyl)-5-hydroxy-4α-methyl-1,4,4α,5,6,7-hexahydrocyclopenta[f]indazol-5-yl]ethyl}phenyl)-N′-isopropylurea], the Emax lay within 5 to 100%.

For the compound `CCNC(=O)Nc1ccc(F)cc1CC[C@]1(O)CCC2=Cc3c(cnn3-c3ccc(F)cc3)C[C@@]21C` [Example 131, N-ethyl-N′-(4-fluoro-2-{2-[(4αS,5R)-1-(4-fluorophenyl)-5-hydroxy-4α-methyl-1,4,4α,5,6,7-hexahydrocyclopenta[f]indazol-5-yl]ethyl}phenyl)urea], the Emax fell in the range of 5 to 100%.

As to `CCNC(=O)Nc1c(F)cccc1CC[C@]1(O)CCC2=Cc3c(cnn3-c3ccc(F)cc3)C[C@@]21C` [Example 132, N-ethyl-N′-(2-fluoro-6-{2-[(4αS,5R)-1-(4-fluorophenyl)-5-hydroxy-4α-methyl-1,4,4α,5,6,7-hexahydrocyclopenta[f]indazol-5-yl]ethyl}phenyl)urea], the Emax is 5 to 100%.

With `CC(C)NC(=O)Nc1ccc(F)cc1CC[C@]1(O)CCC2=Cc3c(cnn3-c3ccc(F)cc3)C[C@@]21C` [Example 133, N-(4-fluoro-2-{2-[(4αS,5R)-1-(4-fluorophenyl)-5-hydroxy-4α-methyl-1,4,4α,5,6,7-hexahydrocyclopenta[f]indazol-5-yl]ethyl}phenyl)-N′-isopropylurea], the Emax was in the range of 5 to 100%.

Take `COC(=O)Oc1ccccc1CC[C@]1(O)CCC2=Cc3c(cnn3-c3ccc(F)cc3)C[C@@]21C` [Example 135, 2-{2-[(4αS,5R)-1-(4-fluorophenyl)-5-hydroxy-4α-methyl-1,4,4α,5,6,7-hexahydrocyclopenta[f]indazol-5-yl]ethyl}phenyl methyl carbonate]: the Emax was in the range of 5 to 100%.

Take `CCNS(=O)(=O)c1ccccc1CC[C@]1(O)CCC2=Cc3c(cnn3-c3ccc(F)cc3)C[C@@]21C` [Example 137, N-ethyl-2-{2-[(4αS,5R)-1-(4-fluorophenyl)-5-hydroxy-4α-methyl-1,4,4α,5,6,7-hexahydrocyclopenta[f]indazol-5-yl]ethyl}benzenesulfonamide]: the Emax lay in the range of 5 to 100%.

In the case of `CNS(=O)(=O)c1ccccc1CC[C@]1(O)CCC2=Cc3c(cnn3-c3ccc(F)cc3)C[C@@]21C` [Example 139, 2-{2-[(4αS,5R)-1-(4-fluorophenyl)-5-hydroxy-4α-methyl-1,4,4α,5,6,7-hexahydrocyclopenta[f]indazol-5-yl]ethyl}-N-methylbenzenesulfonamide], the Emax fell in the range of 5 to 100%.

Turning to `C[C@]12Cc3cnn(-c4cccc(F)c4)c3C=C1CC[C@@]2(O)CCc1ccccc1S(N)(=O)=O` [Example 140, 2-{2-[(4αS,5R)-1-(3-fluorophenyl)-5-hydroxy-4α-methyl-1,4,4α,5,6,7-hexahydrocyclopenta[f]indazol-5-yl]ethyl}benzenesulfonamide], the Emax is 5 to 100%.

For `C[C@]12Cc3cnn(-c4ccccc4)c3C=C1CC[C@@]2(O)CCc1ccccc1S(N)(=O)=O` [Example 141, 2-{2-[(4αS,5R)-5-hydroxy-4α-methyl-1-phenyl-1,4,4α,5,6,7-hexahydrocyclopenta[f]indazol-5-yl]ethyl}benzenesulfonamide], the Emax was in the range of 5 to 100%.

In the case of `C[C@]12Cc3cnn(-c4ccc(F)c(F)c4)c3C=C1CC[C@@]2(O)CCc1ccccc1S(N)(=O)=O` [Example 142, 2-{2-[(4αS,5R)-1-(3,4-difluorophenyl)-5-hydroxy-4α-methyl-1,4,4α,5,6,7-hexahydrocyclopenta[f]indazol-5-yl]ethyl}benzenesulfonamide], the Emax was in the range of 5 to 100%.

As for `C[C@]12Cc3cnn(-c4ccc(F)cc4)c3C=C1CC[C@@]2(O)CCc1cccc(F)c1C#N` [Example 145, 2-fluoro-6-{2-[(4αS,5R)-1-(4-fluorophenyl)-5-hydroxy-4α-methyl-1,4,4α,5,6,7-hexahydrocyclopenta[f]indazol-5-yl]ethyl}benzonitrile], the Emax was 5 to 100%.
